US7264932B2, “Nuclease inhibitor cocktail” (Applera Corporation, priority 1999, dated 2007)

How the values were obtained:
Format in all cases: biochemical
RNase T1 = molecular target: T1, RNase T1 (Aspergillus oryzae, UniProt P00651); assay: Radiolabeled RNA probe degradation gel assay, RNase T1; conditions: 0.15 U RNase T1
T1 sequence (P00651 27-130): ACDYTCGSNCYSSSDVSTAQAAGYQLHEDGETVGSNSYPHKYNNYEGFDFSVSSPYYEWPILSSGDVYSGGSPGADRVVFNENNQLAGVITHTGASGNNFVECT
Experimental: (§1) The activity of anti-nuclease antibodies is readily determined using radiolabeled RNA or DNA to detect the inhibition of RNase or DNase by the anti-nuclease antibodies. In general, the nuclease and anti-nuclease antibody are separately diluted, typically in 1× assay buffer. Assay buffer, nuclease and anti-nuclease antibody are then added to 0.5 ml microfuge tubes. For assaying anti-RNase activity, a mixture comprising assay buffer, RNA and radiolabeled RNA is added to the microfuge tubes. The “MIX” of assay buffer, RNA and radiolabeled RNA is generally prepared by combining 10× Assay Buffer (0.9 μl/rxn), 5 mg/ml yeast RNA (0.4 μl/rxn), ^32-β actin RNA (1 μl/rxn), and nuclease-free H2O (6.7 μl/rxn) for a total of 9 μl/rxn. The tubes are vortexed and microfuged, then incubated at 37° C. for 30 minutes. After incubation, a portion of the tube contents is removed and placed into gel loading buffer. Then the tube contents and the gel loading buffer are mixed, and the combination is loaded onto a gel, typically a 8M urea/5% acrylamide gel, which is exposed to film. […]
(§2) The activity of an anti-nuclease cocktail is readily determined using radiolabeled RNA or DNA to detect the inhibition of nuclease by anti-nuclease antibodies in the anti-nuclease cocktail. […]

E. coli RNase 1 = E. coli RNase 1 (Escherichia coli, UniProt P21338); assay: Radiolabeled RNA probe degradation gel assay, RNase 1; conditions: 1 U RNase 1, 30 minute incubation at 37° C.
Experimental: as §1, §2

RNase A = molecular target: T2, RNase A (Bos taurus, UniProt P61823); assay: Radiolabeled RNA probe degradation gel assay, RNase A; conditions: DTT up to 250 mM, at 37° C.
T2 sequence (P61823 27-150): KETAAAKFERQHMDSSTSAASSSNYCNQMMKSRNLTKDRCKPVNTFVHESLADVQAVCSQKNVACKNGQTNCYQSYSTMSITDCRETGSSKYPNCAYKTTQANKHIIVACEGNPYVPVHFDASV
Experimental: The activity of an anti-nuclease cocktail is readily determined using radiolabeled RNA or DNA to detect the inhibition of nuclease by anti-nuclease antibodies in the anti-nuclease cocktail. […] Assay buffer, nuclease and an anti-nuclease cocktail are then added to 0.5 ml microfuge tubes. A mixture comprising assay buffer, RNA or DNA and radiolabeled RNA or DNA is added to the microfuge tubes, and the tubes are vortexed and microfuged. After incubation of the tubes at 37° C. for 30 minutes, a portion of the tube contents is removed and placed into gel loading buffer. After mixing, the combination is loaded onto a gel, typically a 8M urea/5% acrylamide gel, which is exposed to film.
Radiolabeled RNA was used to detect the inhibition of RNase A, RNase T1, and RNase 1 by specific antibodies.
The “MIX” was prepared by combining 10× Assay Buffer (0.9 μl/rxn), 5 mg/ml yeast RNA (0.4 μl/rxn), ^32P-labeled β actin RNA (1 μl/rxn), and nuclease-free H2O (6.7 μl/rxn), for a total of 9 μl/rxn.
1× Assay Buffer was added first. Then Specific RNase Cocktail, Specific Anti-RNase Cocktail and MIX were added. The tubes are vortexed and microfuged, then incubated at 37° C. for 30 min (Table 9).
At the end of the incubation time, 10 μl of solution was removed from the tube and placed into 10 μl Gel Loading Buffer II. The combination was mixed thoroughly and loaded onto a 8M urea/5% acrylamide gel. The gel was exposed to film for 30 min. at −80° C. with an intensifying screen.

Chain of E. coli RNase 1 (P21338 24-268): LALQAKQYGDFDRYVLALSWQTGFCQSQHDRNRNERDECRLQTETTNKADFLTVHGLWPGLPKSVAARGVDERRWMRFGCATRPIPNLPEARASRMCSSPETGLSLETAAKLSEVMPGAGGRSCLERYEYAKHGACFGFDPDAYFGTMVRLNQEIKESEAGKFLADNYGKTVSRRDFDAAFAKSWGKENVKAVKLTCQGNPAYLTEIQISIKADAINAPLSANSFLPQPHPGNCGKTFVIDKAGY

With `O[C@H](CS)[C@H](O)CS` (racemic) [DTT, dithiothreitol] the “concentration that inhibited RNase T1” value (RNase T1) was 5–10 mM DTT inhibited 0.15 U RNase T1, the “concentration that inhibited RNase 1” value (E. coli RNase 1) was 1–3 mM DTT inhibited 1 U RNase 1 during 30 minute incubation at 37 °C and the “inhibition of RNase A activity” value (RNase A) was “At 37° C., DTT up to 250 mM did not inhibit RNase Aactivity”.
